Consider ten compounds from paper PMC7014678 (International Journal of Molecular Sciences, 2020).

For experiment [1], the target named is T1, Rv3273-β (Mycobacterium tuberculosis, UniProt P96878). The experiment can be described thus: biochemical.
Experiment [2] has as its target T2, BpsCA-β (Burkholderia pseudomallei, UniProt Q63Y17).
T2 construct: gene BPSL0372
The experiment can be described thus: biochemical.

Experiment [3] concerns the target T3, VchCA-α (Vibrio cholerae, UniProt Q9KMP6).
T3 construct: gene VC_A0274
The experiment can be described thus: biochemical.

A further experiment concerns the target T4, BpsCA-γ.
T4 construct: gene BpsCA-gamma
In kind it is biochemical, Burkholderia pseudomallei.

The target of experiment [4] is T5, VchCA-β (Vibrio cholerae, UniProt A0A086SLX8).
T5 construct: gene can
In words: biochemical.

Experiment [5] addresses T1, Rv3273-β. In words: biochemical. The source holds these as a separate data set.
The target in experiment [6] is T5, VchCA-β. The experiment can be described thus: biochemical. This is another data set of the same source.
In the next experiment the target is T6, StCA2-β.
T6 construct: recombinant, obtained in-house; construct not described
The experiment can be described thus: stopped-flow CO2 hydration assay. In kind it is biochemical, Salmonella enterica subsp. enterica serovar Typhimurium. The following applies: CO2 1.7-17 mM; pH 8.3 TRIS; 20 mM Na2SO4; 15 min preincubation, room temperature.

The target in experiment [7] is T3, VchCA-α. In words: biochemical. The source holds these as a separate data set.
For experiment [8], the target named is T2, BpsCA-β. The experiment can be described thus: biochemical. The source holds these as a separate data set.

Each structure is given as a SMILES string. pKi: −log10 of the molar value. Where two headings read alike, the source gives them in different places.

T2 sequence (Q63Y17 1-256): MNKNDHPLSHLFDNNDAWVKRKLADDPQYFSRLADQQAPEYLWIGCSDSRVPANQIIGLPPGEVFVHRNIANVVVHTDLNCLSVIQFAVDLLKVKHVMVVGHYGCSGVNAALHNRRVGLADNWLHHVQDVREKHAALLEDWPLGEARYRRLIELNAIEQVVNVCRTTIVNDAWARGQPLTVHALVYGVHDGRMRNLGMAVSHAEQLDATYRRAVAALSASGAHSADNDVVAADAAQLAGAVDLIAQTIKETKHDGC
T3 sequence (Q9KMP6 21-239 limits assumed): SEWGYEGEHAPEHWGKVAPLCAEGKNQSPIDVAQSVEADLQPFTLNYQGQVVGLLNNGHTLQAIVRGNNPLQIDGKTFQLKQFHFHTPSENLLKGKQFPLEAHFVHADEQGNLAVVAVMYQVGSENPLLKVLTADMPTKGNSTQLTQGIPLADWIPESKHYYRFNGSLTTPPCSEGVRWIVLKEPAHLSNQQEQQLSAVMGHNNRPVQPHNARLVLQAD
T5 sequence (A0A086SLX8 1-222): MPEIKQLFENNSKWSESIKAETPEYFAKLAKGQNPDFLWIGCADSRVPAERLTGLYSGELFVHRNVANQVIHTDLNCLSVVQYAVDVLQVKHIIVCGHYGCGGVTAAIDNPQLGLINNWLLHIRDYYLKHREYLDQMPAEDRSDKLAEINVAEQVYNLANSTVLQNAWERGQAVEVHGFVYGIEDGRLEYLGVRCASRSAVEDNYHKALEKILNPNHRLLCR
T1 sequence (P96878 540-764 limits assumed): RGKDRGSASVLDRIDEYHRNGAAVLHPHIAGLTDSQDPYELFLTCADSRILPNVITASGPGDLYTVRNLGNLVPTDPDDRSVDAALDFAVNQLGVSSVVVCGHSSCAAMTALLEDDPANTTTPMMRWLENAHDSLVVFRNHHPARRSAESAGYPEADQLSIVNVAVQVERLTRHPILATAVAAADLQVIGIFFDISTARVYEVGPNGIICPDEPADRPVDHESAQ

For `CC(O)CSCC(=O)Nc1ccc(S(N)(=O)=O)cc1` (stereo not drawn) [3e], the pKi on Rv3273-β [1] is 6.67; on BpsCA-β [2], less than 5.00; at VchCA-α [3], 7.35; at BpsCA-γ, 6.49; at VchCA-β [4], 5.18.

With `NS(=O)(=O)c1ccc(CCNC(=O)C[Se]c2ccccc2)cc1` [8a], the pKi was 5.82 at Rv3273-β [5], less than 5.00 at BpsCA-β [2], 7.35 on VchCA-α [3] and 5.18 at VchCA-β [4].

Regarding `Cc1ccccc1[Se]CC(=O)Nc1ccc(S(N)(=O)=O)cc1` [7c], the pKi at Rv3273-β [5] (read-out: Rv3273-β, inhibitor) is less than 5.00; on BpsCA-β [2] (read-out: BpsCA-β, inhibitor), less than 5.00; at VchCA-α [3] (read-out: VchCA-α, inhibitor) it was 7.38; at VchCA-β [4] (read-out: VchCA-β, inhibitor) it was 5.21.

Turning to `Cc1ccc(S(=O)(=O)N[C@H](C[Se]CC(=O)NCCc2ccc(S(N)(=O)=O)cc2)C(C)C)cc1` [8d], the pKi on Rv3273-β [5] is less than 5.00; at BpsCA-β [2], less than 5.00; on VchCA-α [3], 7.21; at VchCA-β [4] it was 6.08.

Consider `Cc1ccc([Se]CC(=O)Nc2ccc(S(N)(=O)=O)cc2)cc1` [7b], for which the pKi at Rv3273-β [5] was 6.55; at BpsCA-β [2] it was less than 5.00; at VchCA-α [3], 8.11; on VchCA-β [4], 6.12.

Take `COc1ccc([Se]CC(=O)Nc2ccc([Se]Cc3ccc(S(N)(=O)=O)cc3)cc2)cc1` [9d]: the pKi at VchCA-β [6] was 7.08; at Rv3273-β [5] it was less than 5.00; on BpsCA-β [2], less than 5.00; on VchCA-α [3], 8.05; on StCA2-β it was 8.12.

In the case of `C=C(C)[C@H]1CCC(C)(O)C([Se]CC(=O)NCCc2ccc(S(N)(=O)=O)cc2)C1` (stereo partly drawn) [8e], the pKi is less than 5.00 at Rv3273-β [5]; less than 5.00 on BpsCA-β [2]; 8.21 on VchCA-α [7]; 6.51 on VchCA-β [4]; 8.05 on StCA2-β.

On to `NS(=O)(=O)c1ccc(C[Se]c2ccc(NC(=O)CSc3ccc(Br)cc3)cc2)cc1` [5b], for which the pKi at Rv3273-β [5] is less than 5.00; at BpsCA-β [2], less than 5.00; at VchCA-α [3], 7.34; at VchCA-β [4] it was 6.24; on StCA2-β, 8.09.

For the compound `NS(=O)(=O)c1ccc(NC(=O)C[Se]c2ccccc2)cc1` [7a], the pKi on VchCA-β [6] was 7.02; at Rv3273-β [1], 6.69; at BpsCA-γ (CO2 1.7-17 mM, buffer pH for γ-CA not stated, 20 mM Na2SO4, 15 min preincubation, room temperature), 6.52; on VchCA-α [7], 8.66; at BpsCA-β [8], 5.39.

For the compound `COc1ccc([Se]CC(=O)NCCc2ccc(S(N)(=O)=O)cc2)cc1` [8c], the pKi at VchCA-β [6] is 7.07; at Rv3273-β [5], less than 5.00; on BpsCA-β [2], less than 5.00; at VchCA-α [7], 8.49.
